Experimental data from paper PMC6844310, “Deletion of glutaredoxin promotes oxidative tolerance and intracellular infection in Listeria monocytogenes” (Virulence, 2019).

Molecular target: T1, Grx (Lmo2344) (Listeria monocytogenes, UniProt Q8Y4T8)
T1 construct: CHYC active motif
T1 sequence (Q8Y4T8 1-88): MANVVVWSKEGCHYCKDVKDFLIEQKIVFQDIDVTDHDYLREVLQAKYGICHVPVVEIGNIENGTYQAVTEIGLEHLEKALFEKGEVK
Assay: insulin disulfide reduction, turbidity at […] nm
Format: biochemical
Conditions: electron donor, 1 mM DTT; 0.15 mM human insulin, pH 7.0, 2 mM EDTA; DTT also reduces insulin non-enzymatically

With `OC(CS)C(O)CS` (stereo not shown) [DTT] the “insulin disulfide reduction, turbidity at 650 nm” value was “Using DTT as an electron donor, the recombinant Lmo2344 is able to catalyze the reduction”.
